The test system of one assay is A549 cells. The assay is described as follows: A549 proliferation (viability) assay, Cell Titer Fluor, 72 hours. The class given is cell-based. Particulars: Homo sapiens. The procedure: A549 cells were routinely maintained in RPMI 1640 media (Gibco catalog number 11875-093) supplemented with 10% dialyzed fetal bovine serum using a humidified incubator (37° C., 5% CO2 and ambient O2). In preparation for the viability assay, cells were inoculated into 384-well black CulturPlates (Perkin Elmer) at a density of 1000 cells/well in a volume of 40 uL. Following a 24-hour incubation at 37° C., 5% CO2 and ambient O2, cells were treated with compound (10 uL) in a final DMSO concentration of 0.5% (v/v). The microplates were then incubated for 72 hours (37° C., 5% CO2 and ambient O2). Cell Titer Fluor (Promega) was subsequently added (10 uL of 6× reagent) and mixed for 15 minutes at room temperature. The plates were then incubated for 30 minutes (37° C., 5% CO2 and ambient O2) and fluorescence was subsequently read on the Perkin Elmer Envision plate reader. EC50 values were calculated using a four-parameter logistic curve fit.

For assay [1], the target named is T1, GLS1 (purified recombinant human GAC) (Homo sapiens, UniProt O94925).
T1 sequence (O94925 55-598 isoform O94925-3 limits assumed): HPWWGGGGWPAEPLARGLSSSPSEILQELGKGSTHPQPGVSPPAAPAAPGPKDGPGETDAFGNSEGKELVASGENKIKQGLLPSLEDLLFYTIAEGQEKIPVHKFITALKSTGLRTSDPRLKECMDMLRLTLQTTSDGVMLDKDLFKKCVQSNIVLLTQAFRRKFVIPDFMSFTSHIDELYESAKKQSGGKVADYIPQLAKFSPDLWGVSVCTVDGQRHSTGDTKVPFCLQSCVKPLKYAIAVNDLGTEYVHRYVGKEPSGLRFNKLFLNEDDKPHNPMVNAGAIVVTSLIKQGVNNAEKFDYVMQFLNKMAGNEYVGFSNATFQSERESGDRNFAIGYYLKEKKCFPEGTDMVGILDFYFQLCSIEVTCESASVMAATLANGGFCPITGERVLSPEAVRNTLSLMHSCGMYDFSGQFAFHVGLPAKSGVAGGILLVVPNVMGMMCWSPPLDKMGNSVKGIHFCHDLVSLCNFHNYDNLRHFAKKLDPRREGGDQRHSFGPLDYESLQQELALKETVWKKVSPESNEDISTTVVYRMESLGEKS
The assay is described as follows: GLS1 enzymatic activity assay (dual-coupled, Amplex UltraRed/resorufin). The class given is biochemical. Summed up:
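In this coupled fluorometric format, phosphate-activated GAC (2 nM, 50 mM phosphate) is pre-exposed to compound for 10 min before 1 mM glutamine addition. Product is tracked as resorufin (530/590 nm) over time or at 20 min, and potency is derived by logistic fitting.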

Molecules are shown by their SMILES.

The record followed here is patent US20160002204A1 (Board of Regents, The University of Texas System, priority 2014, published 2016).

On to `O=C(Cc1ccccn1)Nc1ccn(CCCCc2nnc(C(=O)NCc3cc(OC(F)(F)F)ccc3F)s2)c(=O)c1` [Example 461, N-{[2-fluoro-5-(trifluoromethoxy)phenyl]methyl}-5-(4-{2-oxo-4-[2-(pyridin-2-yl)acetamido]-1,2-dihydropyridin-1-yl}butyl)-1,3,4-thiadiazole-2-carboxamide], for which the EC50 (usually the concentration needed to bring the measured effect to its halfway point) in the assay on A549 cells lay in the range of 0.5 to 5 µM. In assay [1], the half-inhibitory concentration (IC50) (commonly the midpoint of a concentration-inhibition curve) was under 0.1 µM.

Regarding `O=C(Cc1ccccc1F)Nc1ccn(CCCCn2cc(C(=O)NCc3cccc(OC(F)(F)F)c3)nn2)c(=O)c1` [Example 55, 1-(4-{4-[2-(2-fluorophenyl)acetamido]-2-oxo-1,2-dihydropyridin-1-yl}butyl)-N-{[3-(trifluoromethoxy)phenyl]methyl}-1H-1,2,3-triazole-4-carboxamide], the EC50 in the assay on A549 cells was in the range of 0.1 to 0.5 µM. The IC50 in assay [1] was under 0.1 µM.

In turn, `CCOC(=O)c1cn(CC(F)CCn2ccc(NC(=O)OC(C)(C)C)c(F)c2=O)nn1` (stereo not drawn) [Example 311, ethyl 1-[4-(4-{[(tert-butoxy)carbonyl]amino}-3-fluoro-2-oxo-1,2-dihydropyridin-1-yl)-2-fluorobutyl]-1H-1,2,3-triazole-4-carboxylate] came in with an EC50 in the assay with A549 cells of over 5 µM. Also, the IC50 in assay [1] was in the range of 0.5 to 5 µM.

`Cc1ccc(CNC(=O)c2nnc(CCCCn3ccc(NC(=O)Cc4ccccc4)cc3=O)s2)cn1` [Example 441, N-[(6-methylpyridin-3-yl)methyl]-5-{4-[2-oxo-4-(2-phenylacetamido)-1,2-dihydropyridin-1-yl]butyl}-1,3,4-thiadiazole-2-carboxamide] yielded an EC50 in the assay with A549 cells of 0.5 to 5 µM. Further, the IC50 in assay [1] is under 0.1 µM.

In the case of `O=C(Nc1ccn(CCCCn2cc(C(=O)NCc3cccc(OC(F)(F)F)c3)nn2)c(=O)c1)OCc1cccc(OC(F)(F)F)c1` [Example 64, [3-(trifluoromethoxy)phenyl]methyl N-(2-oxo-1-{4-[4-({[3-(trifluoro-methoxy)phenyl]methyl}carbamoyl)-1H-1,2,3-triazol-1-yl]butyl}-1,2-dihydropyridin-4-yl)carbamate], the 50% effective concentration (EC50) in the assay with A549 cells lay within 0.1 to 0.5 µM. Also, the IC50 in assay [1] was under 0.1 µM.

In turn, `O=C(CC1CCCCC1)Nc1ccn(CCCCc2nnc(C(=O)NCc3ncccc3F)s2)c(=O)c1` [Example 455, 5-{4-[4-(2-cyclohexylacetamido)-2-oxo-1,2-dihydropyridin-1-yl]butyl}-N-[(3-fluoropyridin-2-yl)methyl]-1,3,4-thiadiazole-2-carboxamide] showed an EC50 in the assay with A549 cells of under 0.1 µM. Further, in assay [1], the IC50 is under 0.1 µM.

For the compound `CC(C)(C)OC(=O)N[C@H]1CC[C@@H](CC(=O)Nc2ccn(CCC(F)Cn3cc(C(=O)NCc4cccc(OC(F)(F)F)c4)nn3)c(=O)c2)CC1` (stereo partly drawn) [Example 241, tert-butyl N-[(1s,4s)-4-{[(1-{3-fluoro-4-[4-({[3-(trifluoromethoxy)phenyl]methyl}carbamoyl)-1H-1,2,3-triazol-1-yl]butyl}-2-oxo-1,2-dihydropyridin-4-yl)carbamoyl]methyl}cyclohexyl]carbamate], the EC50 with A549 cells is under 0.1 µM. In addition, in assay [1], the IC50 was under 0.1 µM.

In the case of `Cc1ccc(CNC(=O)c2cn(CC(F)CCn3ccc(NC(=O)OC4CCC4)c(F)c3=O)nn2)cn1` (stereo not drawn) [Example 396, cyclobutyl N-{3-fluoro-1-[3-fluoro-4-(4-{[(6-methylpyridin-3-yl)methyl]carbamoyl}-1H-1,2,3-triazol-1-yl)butyl]-2-oxo-1,2-dihydropyridin-4-yl}carbamate], the EC50 in the assay on A549 cells was under 0.1 µM. The IC50 in assay [1] lay within 0.1 to 0.5 µM.

In the assay with A549 cells, `O=C(Nc1ccn(CCC(F)Cn2cc(C(=O)NCc3cc(C(F)(F)F)ccn3)nn2)c(=O)n1)OCc1cccc(OC(F)(F)F)c1` (stereo not drawn) [Example 500, [3-(trifluoromethoxy)phenyl]methyl N-(1-{3-fluoro-4-[4-({[4-(trifluoromethyl)pyridin-2-yl]methyl}carbamoyl)-1H-1,2,3-triazol-1-yl]butyl}-2-oxo-1,2-dihydropyrimidin-4-yl)carbamate] displayed an EC50 of under 0.1 µM. The concentration for half-maximal inhibition (IC50) in assay [1] is under 0.1 µM.
